In PubChem BioAssay AID220 (DTP/NCI, 2004):
Values joined by “and” are separate entries in the source; they are usually repeats but may differ in a detail not shown here. Identical values can stand only once. Inconclusive results are not listed.

System: CD8F1 mice, subcutaneous mammary adenocarcinoma, T/C%
Assay: NCI In Vivo Anticancer Drug Screen. Data for tumor model Mammary Adenocarcinoma CD8F1 (subcutaneous) in CD8F1
Conditions: higher = larger tumour
Summary of the method: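 Transplantable tumors were established in mice, animals were dosed with compound or vehicle, and survival or tumor size was then measured in both groups. The treated result was divided by the control result.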

[1] = endpoint: median tumor weight (est.), dose: 25.0 mg/kg/injection, schedule: Q07DX005 (ip), vehicle: Klucel (hydroxypropylcellulose) (HPC)
[2] = endpoint: median tumor weight (est.), dose: 100.0 mg/kg/injection, schedule: Q07DX005 (ip), vehicle: Klucel (hydroxypropylcellulose) (HPC)
[3] = endpoint: median tumor weight (est.), dose: 200.0 mg/kg/injection, schedule: Q07DX005 (ip), vehicle: Klucel (hydroxypropylcellulose) (HPC)
[4] = endpoint: median tumor weight change, dose: 62.5 mg/kg/injection, schedule: Q01DX001 (ip), vehicle: Klucel (hydroxypropylcellulose) (HPC)
[5] = endpoint: median tumor weight (est.), dose: 12.5 mg/kg/injection, schedule: Q07DX005 (ip), vehicle: Klucel (hydroxypropylcellulose) (HPC)
[6] = endpoint: median tumor weight (est.), dose: 50.0 mg/kg/injection, schedule: Q07DX005 (ip), vehicle: Klucel (hydroxypropylcellulose) (HPC)
[7] = endpoint: median tumor weight (est.), dose: 12.5 mg/kg/injection, schedule: Q07DX005 (ip), vehicle: saline with Tween-80
[8] = endpoint: median tumor weight (est.), dose: 25.0 mg/kg/injection, schedule: Q07DX005 (ip), vehicle: saline with Tween-80
[9] = endpoint: median tumor weight (est.), dose: 50.0 mg/kg/injection, schedule: Q07DX005 (ip), vehicle: saline with Tween-80
[10] = endpoint: median tumor weight (est.), dose: 50.0 mg/kg/injection, schedule: Q07DX005 (ip), vehicle: suspension in saline
[11] = endpoint: median tumor weight (est.), dose: 100.0 mg/kg/injection, schedule: Q07DX005 (ip), vehicle: saline with Tween-80
[12] = endpoint: median tumor weight (est.), dose: 100.0 mg/kg/injection, schedule: Q07DX005 (ip), vehicle: suspension in saline

With CC(=O)OCC(=O)[C@@]12OC(C)(C)O[C@@H]1C[C@H]1[C@@H]3CC(C=O)=C4C=C(OCCCl)CC[C@]4(C)[C@@]3(F)[C@@H](O)C[C@@]12C the T/C [1] was 41 % of control and 62 % of control, the T/C [2] was 1 % of control and 16 % of control and the T/C [3] was 1 % of control and 7 % of control. The T/C (endpoint: median tumor weight change, dose: 62.0 mg/kg/injection, schedule: Q01DX001 (ip), vehicle: Klucel (hydroxypropylcellulose) (HPC)) was 32 % of control and the T/C [4] was 66 % of control.
With COc1ccc(CC2C(=O)NC(C)C(=O)N(C)C3Cc4ccc(cc4)Oc4cc(ccc4O)CC(C(=O)NC(C)C(=O)NC(C)C(=O)N2C)N(C)C3=O)cc1 (stereo unspecified) the T/C (endpoint: median tumor weight change, dose: 1.25 mg/kg/injection, schedule: Q01DX001 (ip), vehicle: saline with Tween-80) was 55 % of control, the T/C (endpoint: median tumor weight change, dose: 2.5 mg/kg/injection, schedule: Q01DX001 (ip), vehicle: saline with Tween-80) was 111 % of control and the T/C (endpoint: median tumor weight change, dose: 5.0 mg/kg/injection, schedule: Q01DX001 (ip), vehicle: saline with Tween-80) was 115 % of control. The T/C (endpoint: median tumor weight change, dose: 10.0 mg/kg/injection, schedule: Q01DX001 (ip), vehicle: saline with Tween-80) was 56 % of control and the T/C (endpoint: median tumor weight change, dose: 20.0 mg/kg/injection, schedule: Q01DX001 (ip), vehicle: saline with Tween-80) was 81 % of control.
Nc1nc2c(ncn2C2OC(CO)C(O)C2N)c(=O)[nH]1 (stereo unspecified) was tested, and the T/C (endpoint: median tumor weight (est.), dose: 4.5 mg/kg/injection, schedule: Q07DX005 (ip), vehicle: saline with Tween-80) was 79 % of control, the T/C (endpoint: median tumor weight (est.), dose: 9.0 mg/kg/injection, schedule: Q07DX005 (ip), vehicle: saline with Tween-80) was 99 % of control and the T/C (endpoint: median tumor weight (est.), dose: 36.0 mg/kg/injection, schedule: Q07DX005 (ip), vehicle: saline with Tween-80) was 172 % of control. The T/C (endpoint: median tumor weight (est.), dose: 72.0 mg/kg/injection, schedule: Q07DX005 (ip), vehicle: saline with Tween-80) was 106 % of control.
In the case of CCCCCCCCCCCCCCCCS(=O)CC(O)COC(=O)c1ccc(C(=O)OCC(O)CS(=O)CCCCCCCCCCCCCCCC)cc1 (stereo unspecified), the T/C (endpoint: median tumor weight (est.), dose: 12.5 mg/kg/injection, schedule: Q07DX005 (ip), vehicle: saline + Tween-80 + alcohol) is reported as 68 % of control and 88 % of control, the T/C (endpoint: median tumor weight (est.), dose: 25.0 mg/kg/injection, schedule: Q07DX005 (ip), vehicle: saline + Tween-80 + alcohol) is reported as 69 % of control and 79 % of control and the T/C (endpoint: median tumor weight (est.), dose: 200.0 mg/kg/injection, schedule: Q07DX005 (ip), vehicle: saline + Tween-80 + alcohol) is reported as 48 % of control and 64 % of control. For the same compound, the T/C (endpoint: median tumor weight (est.), dose: 400.0 mg/kg/injection, schedule: Q07DX005 (ip), vehicle: saline + Tween-80 + alcohol) was 78 % of control and 84 % of control.
In the case of O=C(O)c1c2c(nc3ccccc13)Cc1ccccc1-2, the T/C [5] is reported as 96 % of control, the T/C (endpoint: median tumor weight (est.), dose: 12.5 mg/kg/injection, schedule: Q07DX005 (ip), vehicle: water) is reported as 6 % of control and the T/C [1] is reported as 119 % of control. For the same compound, the T/C (endpoint: median tumor weight (est.), dose: 25.0 mg/kg/injection, schedule: Q07DX005 (ip), vehicle: water) was 89 % of control, the T/C [6] was 98 % of control and the T/C (endpoint: median tumor weight (est.), dose: 50.0 mg/kg/injection, schedule: Q07DX005 (ip), vehicle: water) was 59 % of control. For the same compound, the T/C [2] was 97 % of control, the T/C (endpoint: median tumor weight (est.), dose: 100.0 mg/kg/injection, schedule: Q07DX005 (ip), vehicle: water) was 87 % of control and the T/C [3] was 57 % of control. The T/C (endpoint: median tumor weight (est.), dose: 200.0 mg/kg/injection, schedule: Q07DX005 (ip), vehicle: water) was 60 % of control.
With Cc1ccc(C2NC(=O)c3ccccc3N2)s1 (stereo unspecified) the T/C (endpoint: mean tumor weight, dose: 25.0 mg/kg/injection, schedule: Q07DX005 (ip), vehicle: Klucel (hydroxypropylcellulose) (HPC)) was 82 % of control, the T/C (endpoint: mean tumor weight, dose: 50.0 mg/kg/injection, schedule: Q07DX005 (ip), vehicle: Klucel (hydroxypropylcellulose) (HPC)) was 88 % of control and the T/C (endpoint: mean tumor weight, dose: 100.0 mg/kg/injection, schedule: Q07DX005 (ip), vehicle: Klucel (hydroxypropylcellulose) (HPC)) was 106 % of control. The T/C (endpoint: mean tumor weight, dose: 200.0 mg/kg/injection, schedule: Q07DX005 (ip), vehicle: Klucel (hydroxypropylcellulose) (HPC)) was 105 % of control, the T/C (endpoint: mean tumor weight, dose: 400.0 mg/kg/injection, schedule: Q07DX005 (ip), vehicle: Klucel (hydroxypropylcellulose) (HPC)) was 123 % of control and the T/C [5] was 78 % of control. The T/C [1] was 14 % of control and the T/C [6] was 110 % of control.
With Cc1ccc(S(=O)(=O)N/N=C/C(=O)O)cc1 the T/C [5] was 60 % of control, the T/C (endpoint: median tumor weight (est.), dose: 12.5 mg/kg/injection, schedule: Q07DX005 (ip), vehicle: other) was 97 % of control and the T/C [1] was 120 % of control. The T/C (endpoint: median tumor weight (est.), dose: 25.0 mg/kg/injection, schedule: Q07DX005 (ip), vehicle: other) was 70 % of control and 76 % of control, the T/C [6] was 62 % of control and the T/C [2] was 53 % of control.
For CCCCCCCCCCCCCCCCCC(=O)Nc1ccn(C2OC(CO)C(O)C2O)c(=O)n1 (stereo unspecified), the T/C [7] was 98 % of control, the T/C (endpoint: median tumor weight (est.), dose: 12.5 mg/kg/injection, schedule: Q07DX005 (ip), vehicle: suspension in saline) was 93 % of control and the T/C [8] was 52 % of control. The T/C (endpoint: median tumor weight (est.), dose: 25.0 mg/kg/injection, schedule: Q07DX005 (ip), vehicle: suspension in saline) was 27 % of control, the T/C [9] was 49 % of control and the T/C [10] was 45 % of control. The T/C (endpoint: median tumor weight (est.), dose: 77.0 mg/kg/injection, schedule: Q07DX005 (ip), vehicle: saline with Tween-80) was 25 % of control, the T/C [11] was 13 % of control and the T/C [12] was 53 % of control. For the same compound, the T/C (endpoint: median tumor weight (est.), dose: 118.0 mg/kg/injection, schedule: Q07DX005 (ip), vehicle: saline with Tween-80) was 7 % of control.
With N#C[C@H](OC1OC(COC2OC(CO)C(O)C(O)C2O)C(O)C(O)C1O)c1ccccc1 (stereo partly specified) the T/C [10] was 75 % of control, the T/C (endpoint: median tumor weight (est.), dose: 100.0 mg/kg/injection, schedule: Q07DX005 (ip), vehicle: saline) was 76 % of control and the T/C [12] was 77 % of control. The T/C (endpoint: median tumor weight (est.), dose: 200.0 mg/kg/injection, schedule: Q07DX005 (ip), vehicle: saline) was 95 % of control, the T/C (endpoint: median tumor weight (est.), dose: 200.0 mg/kg/injection, schedule: Q07DX005 (ip), vehicle: suspension in saline) was 171 % of control and the T/C (endpoint: median tumor weight (est.), dose: 400.0 mg/kg/injection, schedule: Q07DX005 (ip), vehicle: saline) was 83 % of control. The T/C (endpoint: median tumor weight (est.), dose: 400.0 mg/kg/injection, schedule: Q07DX005 (ip), vehicle: suspension in saline) was 100 % of control, the T/C (endpoint: median tumor weight (est.), dose: 800.0 mg/kg/injection, schedule: Q07DX005 (ip), vehicle: saline) was 96 % of control and the T/C (endpoint: median tumor weight (est.), dose: 1600.0 mg/kg/injection, schedule: Q07DX005 (ip), vehicle: saline) was 41 % of control. The T/C (endpoint: median tumor weight (est.), dose: 1600.0 mg/kg/injection, schedule: Q07DX005 (ip), vehicle: suspension in saline) was 413 % of control.
For CCOC(=O)[C@]1(Br)CC[C@@]1(Br)C(=O)OCC, the T/C [7] was 117 % of control, the T/C [8] was 102 % of control and the T/C [9] was 95 % of control. The T/C [11] was 112 % of control, the T/C (endpoint: median tumor weight (est.), dose: 200.0 mg/kg/injection, schedule: Q07DX005 (ip), vehicle: saline with Tween-80) was 95 % of control and the T/C (endpoint: median tumor weight (est.), dose: 400.0 mg/kg/injection, schedule: Q07DX005 (ip), vehicle: saline with Tween-80) was 105 % of control.
For COc1cc2cc(c1Cl)N(C)C(=O)CC(OC(=O)CC(C)C)C1(C)OC1C(C)C1CC(O)(NC(=O)O1)C(OC)/C=C/C=C(C)C2 (stereo unspecified), the T/C (endpoint: median tumor weight (est.), dose: 18.7 micrograms/kg/injection, schedule: Q07DX005 (ip), vehicle: saline + alcohol) was 76 % of control, the T/C (endpoint: median tumor weight (est.), dose: 37.5 micrograms/kg/injection, schedule: Q07DX005 (ip), vehicle: saline + alcohol) was 80 % of control and the T/C (endpoint: median tumor weight (est.), dose: 75.0 micrograms/kg/injection, schedule: Q07DX005 (ip), vehicle: saline + alcohol) was 85 % of control.
In the case of CC1(C)COCN1COCCOCN1COCC1(C)C, the T/C (endpoint: median tumor weight change, dose: 25.0 mg/kg/injection, schedule: Q01DX001 (ip), vehicle: saline) is reported as 100 % of control, the T/C (endpoint: median tumor weight change, dose: 50.0 mg/kg/injection, schedule: Q01DX001 (ip), vehicle: saline) is reported as 109 % of control and the T/C (endpoint: median tumor weight change, dose: 100.0 mg/kg/injection, schedule: Q01DX001 (ip), vehicle: saline) is reported as 95 % of control.
N#Cc1cn(C2OC(CO)C(O)C2O)c2ncnc(N)c12 (stereo unspecified) was tested, and the T/C (endpoint: median tumor weight (est.), dose: 0.12 mg/kg/injection, schedule: Q07DX005 (ip), vehicle: saline) was 86 % of control, the T/C (endpoint: median tumor weight (est.), dose: 0.25 mg/kg/injection, schedule: Q07DX005 (ip), vehicle: saline) was 53 % of control and the T/C (endpoint: median tumor weight (est.), dose: 0.5 mg/kg/injection, schedule: Q07DX005 (ip), vehicle: saline) was 55 % of control. For the same compound, the T/C (endpoint: median tumor weight (est.), dose: 1.0 mg/kg/injection, schedule: Q07DX005 (ip), vehicle: saline) was 63 % of control.
With O=C(CC(=O)C(F)(F)F)c1csc2ccccc12 the T/C (endpoint: median tumor weight change, dose: 31.25 mg/kg/injection, schedule: Q01DX001 (ip), vehicle: Klucel (hydroxypropylcellulose) (HPC)) was 35 % of control, the T/C [4] was 39 % of control and the T/C (endpoint: median tumor weight change, dose: 125.0 mg/kg/injection, schedule: Q01DX001 (ip), vehicle: Klucel (hydroxypropylcellulose) (HPC)) was 65 % of control.
